Measured values published in the SangsterLogP compilation.
Blank lines part the entries; values can stand above or below the compound they belong to.

Assay: method code SF-AS, from DOI: 10.1021/jm00244a011, PMID: 808606

logP: 0.49
Structure (SMILES): CCOC(=O)CN1C(=O)C=CC1=O

logP: -0.14
Structure (SMILES): O=C(O)CN1C(=O)C=CC1=O

logP: 0.6
Structure (SMILES): O=C(O)CCCCN1C(=O)C=CC1=O

logP: 0.41
Structure (SMILES): CCOC(=O)CCN1C(=O)C=CC1=O

Further lines, the compound ahead of its results:

Structure (SMILES): O=C(O)CCCCCN1C(=O)C=CC1=O
logP: 1.15

Structure (SMILES): O=C(O)CCN1C(=O)C=CC1=O
logP: 0.04

Structure (SMILES): O=C(O)CCCCCCCN1C(=O)C=CC1=O
logP: 1.99

Structure (SMILES): O=C(O)CCCN1C(=O)C=CC1=O
logP: 0.4

Structure (SMILES): CCOC(=O)CCCN1C(=O)C=CC1=O
logP: 0.67

Structure (SMILES): CCOC(=O)CCCCCN1C(=O)C=CC1=O
logP: 1.5
